# Key:
# HT-22 cells [1] = assay: HT-22 serum deprivation toxicity; type: cell-based, mouse; settings: for protection against serum deprivation: 24 h in 10% FBS with compound, then about 12 h serum free medium; for concentration enhancing serum deprivation-induced toxicity: HT-22
# Procedure: The effects of pretreatment of HT-22 cells with PPARγ agonists on serum deprivation toxicity were also studied. We examined whether 15d-PGJ2 or troglitazone have neuroprotective activity against serum deprivation toxicity. HT-22 cells were incubated for 24 hours in 10% FBS medium containing either 15d-PGJ2 or troglitazone. Then, cells were exposed for about 12 hours to a serum free medium with both of the compounds present. […] In addition, 15d-PGJ2 and troglitazone enhanced the serum deprivation-induced toxicity at or above 10 μM and 20 μM, respectively.
# (§1) The WY-14643, Ciglitazone, Troglitazone, 9-cis retinoic acid, and 15d-PGJ2 compounds were purchased from Biomol (Plymouth Meeting, Pa.). L-165041 and L-783483 were kindly provided by Merck Laboratories. The cell lines used were HT-22, an immortalized mouse hippocampal cell line, and SK—N—SH, a human neuroblastoma cell line. The HT-22 cells were obtained from David Schubert (Salk Institute, San Diego, Calif.). The HT-22 line was originally selected from HT-4 cells based on glutamate sensitivity. HT-4 cells were immortalized from primary hippocampal neurons using a temperature-sensitive SV-40 T antigen (Morimoto and Koshland, 1990). SK—N—SH were obtained from ATCC (Manassas, Va.). HT-22 and SK—N—SH cells were grown to confluence in DMEM and RPMI-1640 media, respectively, and supplemented with 10% charcoal/dextran-treated fetal bovine serum (FBS), and 5 mg/ml gentamycin at 37° C. under 95% air, 5% CO2. HT-22 cells were plated at a density of 50,000 cells/ml (5,000 cells/well), and SK—N—SH were plated at a density of 120,000 to 150,000 cells/ml (12,000 to 15,000 cells/well) in 96-well plates. In most studies, wells were pre-treated with PPAR ligands over a wide dose range at various times prior to being subjected to either glutamate, hydrogen peroxide (H2O2), or serum deprivation insults. In some studies, the insults were applied prior to the addition of the PPAR ligand.
# (§2) The cell viability assays were conducted about 14 to 24 hours post-insult time, viability of cells was determined using 2.5 μM Calcein AM assay in phosphate-buffered saline (PBS). After 25 minutes of incubation, live cells were distinguished by the presence of intracellular esterase activity, which cleaves the calcein AM dye, producing a bright green fluorescence. Viability was measured in Relative Fluorescent Units (“RFU”), and expressed as percentage of vehicle-treated control values. The calcein assay was designed to produce results that accurately reflect viable cell numbers. At cell concentrations below 10,000 cells per well (96-well plate) a linear relationship between RFU and cell number is achieved (r^2=0.9997, data not shown).
# HT-22 cells [2] = assay: HT-22 cell viability during H2O2 exposure (calcein AM assay); type: cell-based, mouse; settings: for pre-incubation required to achieve significant neuroprotection from H2O2 toxicity / protection against H2O2: HT-22; for concentrations toxic to HT-22 cells: HT-22, H2O2 experiments; for protection against H2O2: 24 h pretreatment, 30 μM H2O2; for protection when given after the H2O2 insult: post-treatment
# Procedure: HT-22 cultures were incubated with different concentrations of the three compounds for 24 hours prior to the insult. […] Peak neuroprotective concentrations for 15d-PGJ2 ranged from […]. […] Additionally, we determined the effects of 15d-PGJ2 and troglitazone on HT-22 cells protection against another type of pro-oxidant insult, hydrogen peroxide H2O2. […] Higher concentrations (>10 μM and >20 μM) of 15 dPGJ2 and troglitazone, respectively, were toxic to HT-22 cells. […] HT-22 cells were pre-treated with 15d-PGJ2 for 24 hours. Thirty micromolar of H2O2 was then administered, and cell viability was determined 24 hours later. The cell viability is expressed as a % survival of the control (non-peroxide treated) cultures. DMSO received the vehicle only for 15d-PGJ2. Shown in FIG. 23 are the mean±SEM for n>6 cultures/group. The asterisk (“*”) indicates p<0.05 versus respective control.
# as §1, §2
# C6 Glioma cells = assay: C6 glioma glutamate cytotoxicity; type: cell-based, rat; settings: dose dependent manner
# Procedure: (§3) The in vitro model used for oxidative cell death was based upon glutamate, hydrogen peroxide, and buthionine sulfoximine (“BSO”) administration to HT-22 mouse hippocampal, C6 rat glioma, and RGC-5 retinal ganglion cell lines. The ease that the above cell lines are cultured is well known in the art of cell culture. Additionally, these cell lines are suitable for screening a various number of compounds described in the present invention.
# (§4) Although not wanting to be bound by theory, the toxicity of glutamate in HT-22 (32) and C6 glioma (33) cell lines is mediated through oxidative stress. HT-22 cells lack ionotropic N-methyl-D-aspartate (“NMDA”) glutamate receptors, and the glutamate-induced cell death appears to occur via a slow onset oxidative stress (32,34,35). Glutamate blocks cystine uptake by inhibiting the glutamate/cystine antiporter in both HT-22 (32) and C6 glioma (33) cell lines. […] In some of the experiments, the viability of cells was determined using 2.5 μM calcein AM assay in phosphate-buffered saline (PBS 1×). After 25 minutes of incubation, live cells were distinguished by the presence of intracellular esterase activity, which cleaves the calcein AM dye, producing a bright green fluorescence, as shown in FIG. 22. Viability was measured in Relative Fluorescent Units (“RFU”), and expressed as percentage of vehicle-treated control values. […]
# SK—N—SH cells = assay: SK-N-SH H2O2 and serum deprivation insults; type: cell-based, human
# Procedure: Additionally, the effects of pretreatment with PPARγ agonists on H2O2 and serum deprivation toxicities were studied in SK—N—SH cells. After showing that protection in HT-22 cells was insult-type specific, we investigated whether it was also cell-type specific. We used SK—N—SH, a human neuroblastoma cell lines, and tested whether 15d-PGJ2 and troglitazone would protect SK—N—SH against H2O2 and serum deprivation insults. […] Higher concentrations (>10 μM and >20 μM) of 15dPGJ2 and troglitazone, respectively, were toxic to SK—N—SH cells.
# as §1, §2
# HT-22 cells [3] = assay: HT-22 cell viability during BSO exposure; type: cell-based, mouse
# Procedure: as §3, §4
SMILES,protection against serum deprivation (HT-22 cells [1]),concentration enhancing serum deprivation-induced toxicity (HT-22 cells [1]),pre-incubation required to achieve significant neuroprotection from H2O2 toxicity (HT-22 cells [2]),concentrations toxic to HT-22 cells (HT-22 cells [2]),protection against H2O2 (HT-22 cells [2]),protection when given after the H2O2 insult (HT-22 cells [2]),protection against glutamate toxicity (C6 Glioma cells),concentrations toxic to SK-N-SH cells (SK—N—SH cells),protection against H2O2 and serum deprivation insults (SK—N—SH cells),protection against BSO (HT-22 cells [3])
"CCCCC/C=C/C=C1/C(=O)C=C[C@@H]1C/C=C\CCCC(=O)O [15d-PGJ2, 15-deoxy-Δ^12,14-PGJ2]",failed to protect,≥ 10 µM,4 h,above 10 μM,dose-dependent protection,Neither 15dPGJ2 nor troglitazone protected,protected,> 10 µM,Neither of the compounds protected,
Cc1c(C)c2c(c(C)c1O)CCC(C)(COc1ccc(CC3SC(=O)NC3=O)cc1)O2 (stereo not shown) [troglitazone],failed to protect,≥ 20 µM,4 h,> 20 µM,dose-dependent protection,Neither 15dPGJ2 nor troglitazone protected,protected,> 20 µM,Neither of the compounds protected,protected

# — patent US20040224995A1 (University of North Texas Health Science Center at Fort …, priority 2003, published 2004)
